The experiment addresses T1, full-length beta-catenin (Axin site) (Homo sapiens, UniProt P35222).
T1 construct: 15 nM full-length beta-catenin, 20 nM FITC labeled peptide in buffer
T1 sequence (P35222 1-781): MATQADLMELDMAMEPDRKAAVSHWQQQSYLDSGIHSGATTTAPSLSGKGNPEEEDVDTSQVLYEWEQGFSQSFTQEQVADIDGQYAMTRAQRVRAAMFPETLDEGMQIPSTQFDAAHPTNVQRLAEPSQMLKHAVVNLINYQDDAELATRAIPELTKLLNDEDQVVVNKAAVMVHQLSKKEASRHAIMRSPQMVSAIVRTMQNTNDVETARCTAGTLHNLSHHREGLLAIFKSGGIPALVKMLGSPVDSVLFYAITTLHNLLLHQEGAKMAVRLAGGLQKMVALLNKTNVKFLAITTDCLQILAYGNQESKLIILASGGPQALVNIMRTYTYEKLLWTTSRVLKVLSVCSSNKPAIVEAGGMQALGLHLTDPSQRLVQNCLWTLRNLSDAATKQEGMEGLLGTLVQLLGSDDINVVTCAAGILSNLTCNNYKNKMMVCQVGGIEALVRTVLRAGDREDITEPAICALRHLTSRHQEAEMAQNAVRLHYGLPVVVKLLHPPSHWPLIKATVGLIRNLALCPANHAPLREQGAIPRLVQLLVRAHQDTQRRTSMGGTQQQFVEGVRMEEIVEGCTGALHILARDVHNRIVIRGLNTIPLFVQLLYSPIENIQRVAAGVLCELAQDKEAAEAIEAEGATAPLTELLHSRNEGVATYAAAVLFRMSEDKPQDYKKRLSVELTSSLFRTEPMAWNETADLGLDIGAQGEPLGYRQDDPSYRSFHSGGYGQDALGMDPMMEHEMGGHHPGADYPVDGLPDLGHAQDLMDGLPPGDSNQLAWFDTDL
Description: Competition fluorescence polarization assay (Axin site probe). The format is binding. The following applies: competition fluorescence polarization, Table 2; read-out: in vitro FP EC50. The protocol:
FIG. 1. […] Peptide solutions were prepared in buffer (50 mM Tris pH 8.0, 250 mM NaCl, 2% glycerol, 0.5 mM EDTA, 0.02% w/v sodium azide) using a 3-fold serial dilution from 5 μM. Probe solution (15 nM full-length 13-Catenin, 20 nM FITC labeled peptide (FITC-PEG1-PQ-S5-ILD-S5-HVRRVWR (SEQ ID NO: 1) (hydrocarbon staple formed by two S5 via olefin metathesis)) in buffer) was prepared and incubated for 5 minutes, then 40 μL per well plated in a black polystyrene 384-well plate (Corning). Equal volume of the titrated peptide was added to the plate and incubated protected from light for 15 minutes prior to read. Reads were performed on a Spectramax M5 (Molecular Devices) in duplicate.
FIG. 7. […] BCL9 Competition FP assay: Peptide solutions were prepared in buffer (50 mM Tris pH 8.0, 250 mM NaCl, 2% glycerol, 0.5 mM EDTA, 0.02% w/v sodium azide) using a 3-fold serial dilution from 10 μM. Probe solution (250 nM full-length beta-catenin, 20 nM 5FAM labeled peptide in buffer) was prepared and 40 μL per well plated in a black polystyrene 384-well plate (Corning). Equal volume of the titrated peptide was added to the plate and incubated protected from light for 15 minutes prior to read. Reads were performed on a Spectramax M5 (Molecular Devices) in duplicate. Probe: Ac-[…]nLeu-Leu-2NapA-bala-bala-Lys5FAM-NH2 (SEQ ID NO: 2) (from Biochemistry, 2009, 48 (40), pp 9534-9541). Axin Competition FP assay: Peptide solutions were prepared in buffer (50 mM Tris pH 8.0, 250 mM NaCl, 2% glycerol, 0.5 mM EDTA, 0.02% w/v sodium azide) using a 3-fold serial dilution from 5 μM. Probe solution (15 nM full-length beta-catenin, 20 nM FITC labeled peptide in buffer) was prepared and incubated for 5 minutes, then 40 μL per well plated in a black polystyrene 384-well plate (Corning). Equal volume of the titrated peptide was added to the plate and incubated protected from light for 15 minutes prior to read. Reads were performed on a Spectramax M5 (Molecular Devices) in duplicate. Probe: FITC-StAx-33 from Grossmann et al. PNAS 109 17942-17947.
A general note: Polarisation of emitted light reports the rotation of a fluorescent probe.
Turning to `CC[C@H](C)[C@@H]1NC(=O)[C@H](Cc2c[nH]cn2)NC(=O)[C@H](C)NC(=O)[C@H](CC(=O)O)NC(=O)[C@H](CC(C)C)NC(=O)[C@H]([C@@H](C)CC)NC(=O)[C@](C)(NC(=O)[C@H](C)NC(C)=O)CCCCCC=CCN2CC(C(=O)N[C@@H](CCCNC(=N)N)C(=O)N[C@H](C(=O)N[C@@H](Cc3c[nH]c4ccccc34)C(N)=O)C(C)C)(C2)NC1=O` (single isomer, unassigned) [FP0516a Isomer 2, Ac-A-R7-I-L-D-A-H-I-MA-R-V-W-NH2], the half-maximal effective concentration (EC50) (in general, the concentration giving half of the maximal effect) was 0.5 to 5 µM.

As to `CC[C@H](C)[C@@H]1NC(=O)[C@H](Cc2ccccn2)NC(=O)[C@H](C)NC(=O)[C@H](CC(=O)O)NC(=O)[C@H](CC(C)C)NC(=O)[C@H]([C@@H](C)CC)NC(=O)[C@](C)(NC(=O)[C@H](C)NC(C)=O)CCCCCCC=CCOC(=O)N2CC[C@@](C(=O)N[C@@H](C)C(=O)N[C@H](C(=O)N[C@@H](Cc3c[nH]c4ccccc34)C(N)=O)C(C)C)(C2)NC1=O` (single isomer, unassigned) [FP0554c Isomer 1, Ac-A-R8-I-L-D-A-2pyr-I-MB-A-V-W-NH2], the half-maximal effective concentration (EC50) is > 5 µM.

Consider `CC[C@H](C)[C@@H]1NC(=O)[C@H](Cc2ccccn2)NC(=O)[C@H](C)NC(=O)[C@H](CC(=O)O)NC(=O)[C@H](CC(C)C)NC(=O)[C@H]([C@@H](C)CC)NC(=O)[C@](C)(NC(=O)[C@H](C)NC(C)=O)CCCCCCC=CCOC(=O)N2CC[C@@](C(=O)N[C@@H](C)C(=O)N[C@H](C(=O)N[C@@H](Cc3c[nH]c4ccccc34)C(N)=O)C(C)C)(C2)NC1=O` (single isomer, unassigned) [FP0554c Isomer 2, Ac-A-R8-I-L-D-A-2pyr-I-MB-A-V-W-NH2], for which the EC50 is > 5 µM.

Regarding `CC[C@H](C)[C@@H]1NC(=O)[C@H](Cc2ccccn2)NC(=O)[C@H](C)NC(=O)[C@H](CC(=O)O)NC(=O)[C@H](CC(C)C)NC(=O)[C@H]([C@@H](C)CC)NC(=O)[C@](C)(NC(=O)[C@H](C)NC(C)=O)CCCCCCC=CCOC(=O)N2CC[C@@](C(=O)N[C@@H](Cc3ccccc3)C(=O)N[C@H](C(=O)N[C@@H](Cc3c[nH]c4ccccc34)C(N)=O)C(C)C)(C2)NC1=O` (single isomer, unassigned) [FP0555c Isomer 1, Ac-A-R8-I-L-D-A-2pyr-I-MB-F-V-W-NH2], the concentration giving a half-maximal response (EC50) is > 5 µM.

Regarding `CC[C@H](C)[C@@H]1NC(=O)[C@H](Cc2ccccn2)NC(=O)[C@H](C)NC(=O)[C@H](CC(=O)O)NC(=O)[C@H](CC(C)C)NC(=O)[C@H]([C@@H](C)CC)NC(=O)[C@](C)(NC(=O)[C@H](C)NC(C)=O)CCCCCCC=CCOC(=O)N2CC[C@@](C(=O)N[C@@H](Cc3ccccc3)C(=O)N[C@H](C(=O)N[C@@H](Cc3c[nH]c4ccccc34)C(N)=O)C(C)C)(C2)NC1=O` (single isomer, unassigned) [FP0555c Isomer 2, Ac-A-R8-I-L-D-A-2pyr-I-MB-F-V-W-NH2], the EC50 is > 5 µM.

For `CC[C@H](C)[C@@H]1NC(=O)[C@H](Cc2ccccn2)NC(=O)[C@H](C)NC(=O)[C@H](CC(=O)O)NC(=O)[C@H](CC(C)C)NC(=O)[C@H]([C@@H](C)CC)NC(=O)[C@](C)(NC(=O)[C@H](C)NC(C)=O)CCCCCCC=CCOC(=O)N2CC[C@@](C(=O)N[C@H](C(=O)N[C@H](C(=O)N[C@@H](Cc3c[nH]c4ccccc34)C(N)=O)C(C)C)[C@@H](C)CC)(C2)NC1=O` (single isomer, unassigned) [FP0556c Isomer 1, Ac-A-R8-I-L-D-A-2pyr-I-MB-I-V-W-NH2], the EC50 was > 5 µM.

Turning to `CC[C@H](C)[C@@H]1NC(=O)[C@H](Cc2ccccn2)NC(=O)[C@H](C)NC(=O)[C@H](CC(=O)O)NC(=O)[C@H](CC(C)C)NC(=O)[C@H]([C@@H](C)CC)NC(=O)[C@](C)(NC(=O)[C@H](C)NC(C)=O)CCCCCCC=CCOC(=O)N2CC[C@@](C(=O)N[C@H](C(=O)N[C@H](C(=O)N[C@@H](Cc3c[nH]c4ccccc34)C(N)=O)C(C)C)[C@@H](C)CC)(C2)NC1=O` (single isomer, unassigned) [FP0556c Isomer 2, Ac-A-R8-I-L-D-A-2pyr-I-MB-I-V-W-NH2], the EC50 is > 5 µM.

Turning to `CC[C@H](C)[C@@H]1NC(=O)[C@H](Cc2ccccn2)NC(=O)[C@H](C)NC(=O)[C@H](CC(=O)O)NC(=O)[C@H](CC(C)C)NC(=O)[C@H]([C@@H](C)CC)NC(=O)[C@](C)(NC(=O)[C@H](C)NC(C)=O)CCCCCCC=CCOC(=O)N2CC[C@@](C(=O)N[C@@H](CC(C)C)C(=O)N[C@H](C(=O)N[C@@H](Cc3c[nH]c4ccccc34)C(N)=O)C(C)C)(C2)NC1=O` (single isomer, unassigned) [FP0557c Isomer 1, Ac-A-R8-I-L-D-A-2pyr-I-MB-L-V-W-NH2], the EC50 is > 5 µM.

As for `CC[C@H](C)[C@@H]1NC(=O)[C@H](Cc2ccccn2)NC(=O)[C@H](C)NC(=O)[C@H](CC(=O)O)NC(=O)[C@H](CC(C)C)NC(=O)[C@H]([C@@H](C)CC)NC(=O)[C@](C)(NC(=O)[C@H](C)NC(C)=O)CCCCCCC=CCOC(=O)N2CC[C@@](C(=O)N[C@@H](CC(C)C)C(=O)N[C@H](C(=O)N[C@@H](Cc3c[nH]c4ccccc34)C(N)=O)C(C)C)(C2)NC1=O` (single isomer, unassigned) [FP0557c Isomer 2, Ac-A-R8-I-L-D-A-2pyr-I-MB-L-V-W-NH2], the half-maximal effective concentration (EC50) was > 5 µM.

Consider `CC[C@H](C)[C@@H]1NC(=O)[C@H](Cc2ccccn2)NC(=O)[C@H](C)NC(=O)[C@H](CC(=O)O)NC(=O)[C@H](CC(C)C)NC(=O)[C@H]([C@@H](C)CC)NC(=O)[C@](C)(NC(=O)[C@H](C)NC(C)=O)CCCCCCC=CCOC(=O)N2CC[C@@](C(=O)N[C@@H](CC(N)=O)C(=O)N[C@H](C(=O)N[C@@H](Cc3c[nH]c4ccccc34)C(N)=O)C(C)C)(C2)NC1=O` (single isomer, unassigned) [FP0558c Isomer 1, Ac-A-R8-I-L-D-A-2pyr-I-MB-N-V-W-NH2], for which the EC50 is > 5 µM.

Take `CC[C@H](C)[C@@H]1NC(=O)[C@H](Cc2ccccn2)NC(=O)[C@H](C)NC(=O)[C@H](CC(=O)O)NC(=O)[C@H](CC(C)C)NC(=O)[C@H]([C@@H](C)CC)NC(=O)[C@](C)(NC(=O)[C@H](C)NC(C)=O)CCCCCCC=CCOC(=O)N2CC[C@@](C(=O)N[C@@H](CC(N)=O)C(=O)N[C@H](C(=O)N[C@@H](Cc3c[nH]c4ccccc34)C(N)=O)C(C)C)(C2)NC1=O` (single isomer, unassigned) [FP0558c Isomer 2, Ac-A-R8-I-L-D-A-2pyr-I-MB-N-V-W-NH2]: the EC50 is > 5 µM.

In the case of `CC[C@H](C)[C@@H]1NC(=O)[C@H](Cc2ccccn2)NC(=O)[C@H](C)NC(=O)[C@H](CC(=O)O)NC(=O)[C@H](CC(C)C)NC(=O)[C@H]([C@@H](C)CC)NC(=O)[C@](C)(NC(=O)[C@H](C)NC(C)=O)CCCCCCC=CCOC(=O)N2CC[C@@](C(=O)N[C@@H](CCC(N)=O)C(=O)N[C@H](C(=O)N[C@@H](Cc3c[nH]c4ccccc34)C(N)=O)C(C)C)(C2)NC1=O` (single isomer, unassigned) [FP0559c Isomer 1, Ac-A-R8-I-L-D-A-2pyr-I-MB-Q-V-W-NH2], the EC50 is > 5 µM.

Regarding `CC[C@H](C)[C@@H]1NC(=O)[C@H](Cc2ccccn2)NC(=O)[C@H](C)NC(=O)[C@H](CC(=O)O)NC(=O)[C@H](CC(C)C)NC(=O)[C@H]([C@@H](C)CC)NC(=O)[C@](C)(NC(=O)[C@H](C)NC(C)=O)CCCCCCC=CCOC(=O)N2CC[C@@](C(=O)N[C@@H](CCC(N)=O)C(=O)N[C@H](C(=O)N[C@@H](Cc3c[nH]c4ccccc34)C(N)=O)C(C)C)(C2)NC1=O` (single isomer, unassigned) [FP0559c Isomer 2, Ac-A-R8-I-L-D-A-2pyr-I-MB-Q-V-W-NH2], the half-maximal effective concentration (EC50) was > 5 µM.

These data come from patent US11198713B2, “Agents modulating beta-catenin functions and methods thereof” (FOG PHARMACEUTICALS, INC., priority 2017, dated 2021).
